{"source": "patent US20130281298A1", "about": "(priority 2012, published 2013)", "test_system": "citrus greening (HLB)", "assay_type": "in vivo, orange tree"}
{"smiles": "OC[C@H]1O[C@H](O[C@H]2O[C@H](CO)[C@@H](O)[C@H](O)[C@H]2O)[C@H](O)[C@@H](O)[C@@H]1O", "note": "[trehalose]", "values": [{"measurement": "new leaf formation on apparently dead branches", "setting": "as late as four months after treatment, tree seriously afflicted with citrus greening", "value": "new leaves that are formed even on apparently dead branches"}, {"measurement": "condition of tree after foliar treatment", "setting": "four months after one foliar treatment to the canopy of leaves, 1 gram trehalose per 1 gallon of water, 100 gallons/acre", "value": "nearly complete renewal of the tree"}, {"measurement": "development of flowers", "setting": "three months after single foliar treatment", "value": "prolific development of flowers"}]}
